# Laboratory results reported in patent publication EP1492876B1, “CATIONIC AMPHIPHILES FOR INTRACELLULAR DELIVERY OF THERAPEUTIC MOLECULES, COMPOSITION, PROCESS AND USE THEREOF” (COUNCIL OF SCIENTIFIC AND INDUSTRIAL RESEARCH, priority 2002, dated 2003).
# Columns and labels:
# DNA = test: Lipid:DNA interactions assay (ethidium bromide exclusion, fluorescence); assay type: binding; conditions: EtBr: pCMV β-gal complex titrated with lipid, TE buffer pH 8.0; Figure 2
# Source text: Lipid:DNA Interactions Assay. Intercalation-induced fluorescence increase and competition with cationic lipids to bind to DNA has made Ethidium Bromide (EtBr) an excellent tool to study cationic lipid-DNA interactions. To assess the representative lipid:DNA interactions for the cationic lipids of the present invention, we have titrated the EtBr: pCMV β-gal complex with increasing amounts of cationic lipids 1-5.
# The extent of Et.Br binding to the DNA was monitored by the changes in the fluorescence. EtBr fluorescence was monitored in Hitachi 4500 fluorimeter by setting the excitation wavelength at 518 nm and emission wavelength at 585 nm. To one ml of TE buffer (pH 8.0), 0.78 nmoles of DNA and 2.5 nmoles of EtBr were added. The change in fluorescence was monitored after adding small volumes of lipids 1-5 to the EtBr:DNA complex. Arbitrary fluorescence values were recorded after allowing sufficient time for equilibration. […] Percent fluorescence was calculated considering the fluorescence value in the absence of lipid as 100.
# COS-1 cells = test: Cell transfection (β-galactosidase reporter gene activity); assay type: cell-based; conditions: 0.15 µg plasmid DNA, lipid 0.05 - 4.3 nmoles, reporter gene activity after 48 h, Figure 1, compared with DMRIE
# Protocol: Similar examples of plasmid include PGL-2 and PGL-3 of Promega and others.
# Cell Transfection. COS-1 cells were seeded at a density of 15,000 cells/well in a 96-well plate eighteen hours before the transfection. 0.15 µg of plasmid DNA was complexed with varying amount of lipid (0.05 - 4.3 nmoles) in 13 µl of plain DMEM medium for 30 min. The charge ratios were varied from 0.1 : 1 to 9 : 1 (+/-) over this range of the lipid. The complex was diluted to 100 µl with plain DMEM and added to the wells. After 3 h of incubation, 100 µl of DMEM with 10 % FCS was added to the cells. The medium was changed to 10 % complete medium after 24 h and the reporter gene activity was estimated after 48 h. The cells were washed twice with PBS and lysed in 50 µl of lysis buffer (0.25 M Tris.HCl, pH 8.0 and 0.5% NP40). Care was taken to ensure complete lysis. The β-galactosidase activity per well was estimated by adding 50 µl of 2X substrate solution (1.33 mg/ml of ONPG, 0.2 M sodium phosphate, pH 7.15 and 2 mM magnesium chloride) to the lysate in a 96-well plate. Absorption at 405 nm was converted to β-galactosidase units by using calibration curve constructed with pure commercial β-galactosidase enzyme. The values of β-galactosidase units in replicate plates assayed on the same day varied by less than 30 %. […]
# [1] = MTT based viability assay (toxicity assay); assay type: cell-based; conditions: monkey; COS-1 cells, 3:1 charge ratio
# Protocol: Toxicity Assays. An MTT based viability assay was performed to assess the cytotoxicity of lipids 1-5 at various lipid:DNA charge ratios with COS-1 cells as described previously (Banerjee, R. et al. 1999). […] For lipids 1, 4 and 5 at a 3:1 charge ratio the toxicity varied from 15-25 % of the treated cells. The toxicity of lipid 2 (with shorter alkyl chains) may originate from its probable detergent-like cell-lysing activity.
SMILES,lipid:DNA interaction (ability to exclude ethidium bromide from DNA) (DNA),in vitro transfection efficiency (COS-1 cells),cytotoxicity [1] [%]
CCCCCCCCCCCCCC[N+]1(CCCCCCCCCCCCCC)CC(O)C(O)C1 (stereo not drawn) [compound 2],interact with DNA equally well up to lipid:DNA ratio of 1.25 or so,comparable to or better than that of DMRIE,
CCCCCCCCCCCCCCCC[N+]1(CCCCCCCCCCCCCCCC)CC(O)C(O)C1 (stereo not drawn) [compound 3],interact with DNA equally well up to lipid:DNA ratio of 1.25 or so,,
CCCCCCCCCCCCCCCCCC[N+]1(CCCCCCCCCCCCCCCCCC)CC(O)C(O)C1 (stereo not drawn) [compound 4],interact poorly with DNA,,15 to 25
CCCCCCCCCCCC[N+]1(CCCCCCCCCCCC)CC(O)C(O)C1 (stereo not drawn) [compound 1],interact poorly with DNA,,15 to 25
CCCCCCCC/C=C\CCCCCCCC[N+]1(CCCCCCCCCCCCCCCCCC)CC(O)C(O)C1 (stereo not drawn) [compound 5],interact poorly with DNA,,15 to 25
